Test results reported in publication PMC7796107, “Efficient Separation of Phytochemicals from Muehlenbeckia volcanica (Benth.) Endl. by Polarity-Stepwise Elution Counter-Current Chromatography and Their Antioxidant, Antiglycation, and Aldose Reductase Inhibition Potentials” (Molecules, 2021).
Like-named read-outs stand apart in the source and are kept apart here. Marks after values point to notes of the source that are not given here.

How the values were obtained:
[1] = DPPH radical scavenging assay; format: biochemical; conditions: Trolox equivalent antioxidant capacity
Procedure: (§1) The antioxidant activities of the 70% methanol extract of M. volcanica and the separated compounds were evaluated using DPPH, ABTS, and ORAC assays. The results were expressed as Trolox equivalent antioxidant capacity (TEAC, µg Trolox/µg extract or µM Trolox/µM compound), which were calculated with the equations obtained from the calibration curves of Trolox standards (final concentrations) versus their DPPH and ABTS radical inhibition (%) and the net AUC value (ORAC assay).
The DPPH radical scavenging assay was carried out using an EL800 microplate reader (Bio-Tek Instruments, Winooski, VT, USA). Briefly, 180 μL of freshly prepared DPPH solution (0.32 mM in methanol) was mixed with 20 μL of sample (dissolved in methanol, extract 250 µg/mL; compounds 62.5–1000 µM) in a 96-well plate. The mixture was incubated for 20 min in the dark at 25 °C, and then, the absorbance was measured at […]. […] Results are expressed in µg Trolox equivalents/µg extract or µM Trolox equivalents/µM compound. The DPPH radical scavenging activity (%) is calculated using Equation (1):(1) %inhibition=1−Asample−Ablank1/Acontrol−Ablank2×100%, where Asample is the absorbance of DPPH solution with a sample, Ablank1 is the absorbance of the test sample without DPPH, Acontrol is the absorbance of DPPH solution without a sample, Ablank2 is the absorbance of methanol, without DPPH or a sample.

[2] = ABTS radical scavenging assay; format: biochemical; conditions: Trolox equivalent antioxidant capacity
Procedure: as §1
The ABTS radical scavenging assay was carried out using the same EL800 microplate reader. Briefly, 0.2 mM of ABTS diammonium salt was prepared in 3.5 mM of potassium persulfate aqueous solution, and the mixture solution was then diluted 10 times using distilled water. The diluted solution was allowed to stand for 24 h in the dark at room temperature (about 25 °C) to produce ABTS radical cations (ABTS^+). For reaction, 290 μL of ABTS^+ solution was mixed with 10 μL of sample (dissolved in methanol, extract 62.5–125 µg/mL; compounds 20–250 µM) in a 96-well plate, and the mixture solution was allowed to react for 10 min at 25 °C in the dark. Then, the absorbance was measured at 750 nm. […] Results are expressed in µg Trolox equivalents/µg extract or µM Trolox equivalents/µM compound. The ABTS radical scavenging activity (%) is calculated using Equation (1) where Asample is the absorbance of ABTS^+ solution with a sample, Ablank1 is the absorbance of the test sample without ABTS^+, Acontrol is the absorbance of ABTS^+ solution without a sample, Ablank2 is the absorbance of buffer, without ABTS^+ or a sample.

[3] = ORAC (oxygen radical absorbance capacity) assay; format: biochemical; conditions: Trolox equivalent antioxidant capacity, ORAC assay (peroxyl radicals)
Procedure: as §1
The ORAC assay was carried out using a Fluoroskan Ascent FL microplate reader (Thermo, Waltham, MA, USA) using the method described previously with minor modifications. Antioxidants can scavenge the peroxyl radicals generated by AAPH, which prevent the degradation of the fluorescein and, therefore, prevent the loss of the fluorescence of fluorescein. Briefly, fluorescein sodium salt (117 nM) and AAPH (40 mM) were freshly prepared in 0.1 M phosphate-buffered saline (PBS, pH 7.4). For reaction, 120 µL of fluorescein sodium salt (117 nM) and 20 µL of sample (dissolved in methanol, extract 10–20 µg/mL; compounds 10–160 µM) were mixed in a black 96-well plate and pre-incubated for 15 min at 37 °C. Next, 60 µL of AAPH (40 mM) was added, and the fluorescence was measured 100 times (interval 1 min) at excitation and emission wavelengths of 485 nm and 538 nm, respectively, by the microplate reader maintained at 37 °C. […] The relative ORAC values are expressed in µg Trolox equivalents/µg extract or µM Trolox equivalents/µM compound.

aldose reductase (AR) = target: T1, aldose reductase (AR) (Rattus norvegicus, UniProt P07943); experiment: Aldose reductase (AR) inhibition assay, rat lens homogenate; format: biochemical, Sprague–Dawley rats; conditions: for IC50: rat lens AR homogenate
T1 construct: centrifuged at 10,000× g for 30 min at 4 °C (Centrifuge 5417R, Eppendorf, Germany) to obtain AR homogenate (in the supernatant); from tissue; host or cells: eye lenses of Sprague–Dawley rats
Procedure: For the extraction of AR, the rat eye lenses were grounded in a precooled mortar (−70 °C) and extracted using 0.1 M PBS (pH 6.2; about 0.5 mL of PBS per two frozen rat lenses).
A 96-well plate-based AR inhibition assay was used in this study, which was modified from a previous method. In principle, the rate of the absorbance decrease of NADPH at 340 nm (OD340 nm) was used for evaluation of the AR inhibitory activity. […] Then, as soon as 20 μL of the substrate (DL-glyceraldehyde dimer, 25 mM in 0.1 M PBS, pH 7.0) was added, the absorbance of the reaction solution at 340 nm was measured for 6 min using an Epoch microplate spectrophotometer (BioTek Instruments, Highland Park, IL, USA). […] The samples were first prepared at high concentrations in DMSO or in a mixture of DMSO and water and then diluted using water shortly before the experiment. The concentration of DMSO was kept within 0.2% (v/v) in the reaction system. […] The AR inhibition ratio (%) for the samples was calculated using Equation (4):(4) %inhibition=1−Slopes−Slopeb/Slopec−Slopeb×100%, where Slopec, Slopes, and Slopeb are the slopes obtained from the OD340 nm versus the reaction time (min) dotted lines of the control group (without sample), sample group (with enzyme and sample), and blank group (without enzyme or sample), respectively. |Slope| is the absolute value of Slope.

[4] = test system: streptozotocin-induced diabetic rats; conditions: cited from earlier work
[5] = cited from earlier work
diabetic Octodon degus = test system: diabetic Octodon degus; design: method as in PMID 401544; conditions: oral administration; cited from earlier work
[6] = target: fructose-mediated bovine serum albumin (BSA) glycation (Bos taurus, UniProt P02769); experiment: Antiglycation assay, fructose-mediated BSA glycation model; conditions: for inhibition at 12.5 µM / inhibition at 25 µM / inhibition at 50 µM / inhibition at 100 µM: read-out: Antiglycation activity, inhibition (%)
Sequence of fructose-mediated bovine serum albumin (BSA) glycation (P02769 25-607): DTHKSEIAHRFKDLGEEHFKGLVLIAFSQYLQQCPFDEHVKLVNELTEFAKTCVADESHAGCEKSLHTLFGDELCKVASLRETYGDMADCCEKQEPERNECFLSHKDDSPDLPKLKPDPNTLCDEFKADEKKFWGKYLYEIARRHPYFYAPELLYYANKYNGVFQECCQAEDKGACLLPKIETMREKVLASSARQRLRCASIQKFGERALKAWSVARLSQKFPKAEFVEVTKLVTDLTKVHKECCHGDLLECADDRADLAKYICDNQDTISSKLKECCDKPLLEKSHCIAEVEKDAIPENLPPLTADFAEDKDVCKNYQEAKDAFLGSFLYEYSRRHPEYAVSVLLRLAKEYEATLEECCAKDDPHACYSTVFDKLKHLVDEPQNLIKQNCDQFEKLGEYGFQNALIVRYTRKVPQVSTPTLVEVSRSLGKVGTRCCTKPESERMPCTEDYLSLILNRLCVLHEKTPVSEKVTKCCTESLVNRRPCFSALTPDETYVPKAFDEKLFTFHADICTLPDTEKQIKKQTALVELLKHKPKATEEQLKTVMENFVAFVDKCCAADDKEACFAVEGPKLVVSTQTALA

[7] = read-out: AR inhibition activity, inhibition (%)
[8] = 6.25 µM, read-out: AR inhibition activity, inhibition (%)
[9] = 12.5 µM, read-out: AR inhibition activity, inhibition (%)
[10] = 25 µM, read-out: AR inhibition activity, inhibition (%)
[11] = 50 µM, read-out: AR inhibition activity, inhibition (%)

| SMILES | TEAC, DPPH [1] | TEAC, ABTS [2] | TEAC, ORAC [3] | Effect on oxidative stress [4] | IC50 [6] | inhibition at 12.5 µM [6] | inhibition at 25 µM [6] | inhibition at 50 µM [6] | inhibition at 100 µM [6] | inhibition at 6.25 µM (aldose reductase (AR); [8]) | inhibition at 12.5 µM (aldose reductase (AR); [9]) | inhibition at 25 µM (aldose reductase (AR); [10]) | inhibition at 50 µM (aldose reductase (AR); [11]) | further results |
| --- | --- | --- | --- | --- | --- | --- | --- | --- | --- | --- | --- | --- | --- | --- |
| C[C@@H]1O[C@@H](Oc2c(-c3ccc(O)c(O)c3)oc3cc(O)cc(O)c3c2=O)[C@H](O)[C@H](O)[C@H]1O [Quercitrin (9), quercitrin] | 0.92 ± 0.01 ^e µM trolox/µM Compound | 1.07 ± 0.05 ^e µM trolox/µM Compound | 5.32 ± 0.29 ^c µM trolox/µM Compound | ameliorate the oxidative stress | 17.6 ± 0.28 µM | 32.3 ± 0.24% | 75.2 ± 2.52% | 89.1 ± 1.26% | 94.3 ± 1.39% | – | – | – | – | inhibition at 0.049 µM (aldose reductase (AR); [7]): 12 ± 0.82%; inhibition at 0.098 µM (aldose reductase (AR); [7]): 33.3 ± 2.17%; inhibition at 0.195 µM (aldose reductase (AR); [7]): 54.6 ± 1.78%; inhibition at 3.125 µM (aldose reductase (AR); [7]): 94.35 ± 0.3%; Inhibition of AGEs by trapping methylglyoxal [5]: inhibit AGEs by trapping methylglyoxal; Accumulation of sorbitol in the lens (diabetic Octodon degus): significantly decreased; Onset of cataract (diabetic Octodon degus): delayed |
| O=C(O)[C@H]1O[C@@H](Oc2c(-c3ccc(O)c(O)c3)oc3cc(O)cc(O)c3c2=O)[C@H](O)[C@@H](O)[C@@H]1O [Miquelianin (7), miquelianin] | 1.97 ± 0.02 ^c µM trolox/µM Compound | 0.99 ± 0.05 ^f µM trolox/µM Compound | 5.85 ± 0.20 ^b µM trolox/µM Compound | – | 24.5 ± 0.52 µM | 24.9 ± 2.12% | 49.4 ± 1.26% | 78 ± 2.28% | 90 ± 1.92% | – | – | – | – | IC50 (aldose reductase (AR)): 7.93 ± 0.4 µM; inhibition at 3.125 µM (aldose reductase (AR); [7]): 29.7 ± 1.21%; inhibition at 6.25 µM (aldose reductase (AR); [7]): 44.5 ± 2.11%; inhibition at 12.5 µM (aldose reductase (AR); [7]): 59.1 ± 6.86%; inhibition at 25 µM (aldose reductase (AR); [7]): 76.7 ± 1.21% |
| O=C(O)c1ccc(O)c(Nc2cc(C(=O)O)ccc2O)c1 [4,4′-dihydroxy-3,3′-imino-di-benzoic acid] | 1.38 ± 0.05 ^d µM trolox/µM Compound | 1.27 ± 0.03 ^c µM trolox/µM Compound | 5.75 ± 0.26 ^b µM trolox/µM Compound | – | 60.5 ± 2.62 µM | < 0% | 14.9 ± 3.87% | 44.5 ± 2.54% | 68.4 ± 0.92% | 8.57 ± 0.06% | 14.4 ± 0.6% | 27.2 ± 0.36% | 53.3 ± 2.76% | IC50 (aldose reductase (AR)): 47 ± 2.28 µM |
| O=C(O)C1=C[C@@H](O)[C@@H](O)[C@H](O)C1 [Shikimic acid (2), shikimic acid] | – | – | – | – | – | < 0% | < 0% | < 0% | < 0% | < 0% | 0.32 ± 1.21% | 5.86 ± 5.42% | 7.36 ± 0.3% | – |
| O=C(O)c1ccc(O)c(O)c1 [Protocatechuic acid (4), protocatechuic acid] | 0.72 ± 0.01 ^f µM trolox/µM Compound | 0.88 ± 0.03 ^g µM trolox/µM Compound | 5.79 ± 0.32 ^b µM trolox/µM Compound | ameliorate the oxidative stress | – | 5.26 ± 4.29% | 11.4 ± 3.92% | 36.1 ± 0.78% | 48.4 ± 1.76% | – | – | – | – | inhibition at 6.25 µM (aldose reductase (AR); [7]): 0.96 ± 2.11%; inhibition at 12.5 µM (aldose reductase (AR); [7]): 2.67 ± 2.71%; inhibition at 25 µM (aldose reductase (AR); [7]): 7.14 ± 0.6%; inhibition at 50 µM (aldose reductase (AR); [7]): 7.78 ± 1.51% |
| Cl.N=C(N)NN [Aminoguanidine hydrochloride, aminoguanidine hydrochloride, reference compound] | – | – | – | – | – | – | – | – | – | – | – | – | – | Antiglycation activity, inhibition (%) ([6]; 1000 µM): 10.99 ± 0.07%; Antiglycation activity, inhibition (%) ([6]; 2000 µM): 44.58 ± 0.54%; Antiglycation activity, inhibition (%) ([6]; 4000 µM): 81.26 ± 0.88%; Antiglycation IC50 ([6]; fructose-mediated BSA glycation, 14 days, 37 °C): 317.36 µg/mL; IC50 ([6]; read-out: Antiglycation activity, IC50, fructose-mediated BSA glycation): 2181 ± 8.11 µM |
| O=C(O)c1cc(O)c(O)c(O)c1 [Gallic acid (3), gallic acid] | 3.01 ± 0.04 ^a µM trolox/µM Compound | 3.35 ± 0.06 ^b µM trolox/µM Compound | 1.43 ± 0.08 ^d µM trolox/µM Compound | ameliorate the oxidative stress | – | < 0% | < 0% | 3.69 ± 2.97% | 8.42 ± 1.27% | < 0% | 4.16 ± 5.43% | 4.16 ± 1.81% | 13.5 ± 1.21% | TEAC, DPPH ([1]; listed as gallic acid): 3.01 µM trolox/µM Compound |
